Source: patent US20040162337A1, “Chemical compounds having therapeutic activities in treating cancer” (priority 2003, published 2004)
“Also recorded” adds a separate entry of the source.

What was measured:
[1] = test system: MDR KB-V1 cells; assay: Sulfo-Rhodamine B (SRB) cytotoxicity assay, KB-V1; type: cell-based, human; details: 3-day dose-response
Procedure: In the following experiments, tests were conducted using the human cancer cell lines KB-3-1 and KB-V1. The MDR cancer cells KB-V1 were selected from drug sensitive KB-3-1 cells treated by vinblastine. The cell lines (American Type Culture Collection, MD, USA) were routinely grown in MEM (Gibco, MD, USA) containing 10% fetal bovine serum (FBS) and 1% antibiotic solution (Gibco, MD, USA), and 300 ng/ml of vinblastine for maintenance of drug resistance for KB-V1 cells. Cultures of the cells were maintained in a humidified 5% CO2 incubator.
The color intensity of SRB, positively correlated to number of cell, was estimated by correlating to OD at 515 nm. The concentration of DMSO and ethanol in the drug solvent of APC was 20 wt % and 80 wt % respectively. The concentration of DMSO in each culture sample was ≦0.1%.

[2] = test system: human carcinoma KB-3-1 cancer cell line; assay: Sulfo-Rhodamine B (SRB) cytotoxicity assay, KB-3-1; type: cell-based; details: drug-sensitive KB-3-1 cells, 72 hours, median-effect plot
Procedure: Assays were carried out in triplicate against human carcinoma KB-3-1 cancer cell line. […] The treatment of KB-3-1 cancer cells lasted for 72 hours and the cell number in each sample was estimated by correlating to optical density (OD) at 515 nm. […] The median dose value was determined from plots of median effects and was equivalent to LD50 (Skehan P.; Storeng R.; Scudiero D.; Monks A.; McMahon J.; Vistica D; Warren J T.; Bokesch H.; Kenney S.; Boyd M R.; J Natl Cancer Inst 1990 82:1107-1112).

[3] = test system: P-glycoprotein (P-gp); assay: Western blotting of P-gp; type: cell-based, human; details: KB-3-1 and KB-V1 cells, 1× and 2× dose of LD50
Procedure: (§1) For protein analysis of P-gp and actin, cells were lysed in ice-cold lysis buffer (1% sodium deoxycholate, 0.1% SDS, 1% Triton X-100, 2 mM phenylmethylsulphonyl fluoride, 1% aprotinin). Total lysates were subjected to SDS/PAGE and electrotransferred to nitrocellulose membranes (Bio-Rad). Membranes were then incubated with anti-P-gp or anti-β-actin antibody (Calbiochem) in blocking buffer (10 mM Tris pH7.5, 100 mM NaCl, 0.1% Tween 20, 5% non-fat dry milk) for 1 hour at room temperature before incubation with horseradish-peroxidase-conjugated anti-(rabbit IgG) or anti-(mouse IgG) antibody (Gibco BRL) for 1 hour at room temperature. Immunobinding was detected by the ECL method (Amersham). β-actin polyclonal antibody (Oncogene Science, Uniondale, N.Y., USA) was used as internal standard. Drug-sensitive KB-3-1 was used as control experiments.

[4] = test system: MDR KB-V1 cells; assay: Doxorubicin accumulation assay (flow cytometry), KB-V1; type: cell-based, human
Procedure: (§2) Data was collected with CellQuest Software and analysed with ModFitLT V2.0. Mean fluorescence intensities of 1×10^4 drug-treated cells were quantified and compared with the APC untreated cells. […] A negative control test was also performed.

[5] = test system: KB-V1 cells; assay: Apoptosis study by DNA ladder, KB-V1; type: cell-based, human; details: 24 hours
Procedure: (§3) This experiment was a continuation of Experiment 7. Apoptotic studies by DNA ladder was carried out for 24 hours with drug treatment at different concentrations (17.26 μM, 34.52 μM & 172.56 μM) of APC. A total of eight groups of cells were used. 5×10^6 cells were washed in PBS. Their genomic DNA was extracted using Apoptotic DNA Ladder Kit-Best. Nr. 1 835 246 (Roche) according to Manufacturer's manual. DNA was analyzed by electrophoresis in 2% agarose gel containing 0.1% ethidium bromide in TAE buffer (99v, 30 min). DNA bands were observed and recorded by Multi-Imager (Bio-Rad, California, USA).

[6] = test system: MDR1 mRNA; assay: Reverse transcription-PCR of MDR1; type: cell-based, human; details: KB-3-1 and KB-V1 cells, 1× and 2× dose of LD50
Procedure: (§4) 1 μg of total RNA isolated from cells using High Pure™ RNA Isolation Kits (Roche) was incubated with 100 ng random primers (Gibco BRL) and DEPC-treated water (total volume 10 μl) for 10 min at 65° C., then for 5 min on ice. Reverse transcription mixture contained 4 μl of 5× reaction buffer (50 mM Tris-HCl, 100 mM NaCl, 1 mM EDTA, 10 mM DTE, 0.05% polydocanol v/v, 50% glycerol v/v, pH 8.4), 2 μl 10 mM dNTP, 2 μl 100 mM dithiothreitol and 1 μl 50 units/μl Expand™ Reverse Transcriptase (Roche). The reaction lasted for 1.5 hours at 42° C. PCR amplifications were carried out using Expand™ Long Template PCR System (Roche). The primers used were cDNA sequences of p-glycoprotein (P-gp) SEQ ID NO. 1 (sense strand) and SEQ ID NO. 2 (anti-sense strand); cDNA sequences of β-actin SEQ ID NO. 3 (sense strand) and SEQ ID NO. 4 (anti-sense strand). […] of [α-^32P]dATP was added to 25 μl amplification reaction mix. The PCR was performed in a Gene Cycler™ (Bio-Rad) for 27 cycles, consisting of 1 min at 94° C., 1 min at 57° C. and 1 min at 72° C. The samples were heated for 5 min at 94° C. before the first cycle, and the extension time was lengthened to 10 min during the last cycle. PCR products resulted therefrom were size-fractionated on 10% polyacrylamide gel. Autoradiography was carried out with BioMax film (Kodak). Drug-sensitive KB-3-1 was used as control experiments. […]

[7] = test system: KB-3-1 cells; assay: Apoptosis study by DNA ladder, KB-3-1; type: cell-based, human; details: 24 hours
Procedure: In this experiment, three groups of KB-3-1 cells were treated for 24 hours at different concentrations (17.26 μM, 34.52 μM & 172.56 μM) of APC. A control group of KB-3-1 cells was treated as negative control for the same amount of time. Approximately 5×10^6 cells from each of the four groups were washed in phosphate buffered saline (PBS) and their genomic DNA was extracted using Apoptotic DNA Ladder Kit-Best. Nr. 1 835 246 (Roche) according to the manufacturer's manual. The extracted DNA was analyzed by electrophoresis in 2% agarose gel containing 0.1% ethidium bromide in tris galacial acetic acid (TAE) buffer for 30 minutes at 99v. DNA bands of the gel were observed and recorded by Multi-Imager (Bio-Rad, California, USA).
as §3

[8] = test system: KB-3-1 cells; assay: Doxorubicin accumulation assay (flow cytometry), KB-3-1; type: cell-based, human; details: pre-treatment, then 2 μM doxorubicin 30 min
Procedure: as §2

[9] = test system: KB-3-1 cells; assay: Combination Index (CI-isobologram) of APC and doxorubicin, KB-3-1; type: cell-based, human
Source text: (§5) In this experiment, the CI-isobologram by Chou and Talalay was used to determine the Combination Index (CI) of APC and doxorubicin. In order to understand the synergistic effect of APC with a conventional cancer drug, a number of combinations of drug concentrations were used in the combination studies. A mutually non-exclusive equation was used to determine the CIs, and the equation is illustrated and explained in the Appendix section below. CI>1, CI=1, and CI<1 indicate antagonism, additive effect, or synergism, respectively. The explanation of the determination of combination indices (CI) is provided in the Appendix section towards the end of the description.
(§6) The Chou and Talalay (Chou T C; Talay P. Adv Enzyme Regul 1984 22:27-55) combination index CI-isobologram equation for two-drug combination is: [formula]
(§7) Firstly, the Din (Median Dose or LD50) and m of each treatment was determined according to the Median-Effect Plot. […] Combination Indices (CI) were calculated at various fractional kill (fa).
(§8) The CI-isobologram by Chou and Talalay was used to determine the Combination Indices (CI) of APC and doxorubicin. […] The mutually non-exclusive equations were used to determine the CIs and each CI was calculated from the mean affected fraction at each drug ratio concentration.

[10] = test system: β-Actin; assay: Reverse transcription-PCR of β-Actin (internal standard); type: cell-based, human; details: KB-3-1 and KB-V1 cells, 1× and 2× dose of LD50
Procedure: as §4

[11] = test system: MDR KB-V1 cells; assay: Combination Index (CI-isobologram) of APC and doxorubicin, KB-V1; type: cell-based, human; details: APC 2.0219 μM to 129.3996 μM with doxorubicin, particularly fractional kill greater than 50%
Source text: as §5, §6, §7, §8

[12] = test system: actin; assay: Western blotting of actin; type: cell-based, human; details: KB-3-1 and KB-V1 cells, 1× and 2× dose of LD50
Procedure: as §1

Row | Structure (SMILES) | LD50 [1] | LD50 [2] | level of P-gp proteins [3] | accumulation of doxorubicin in cells ([4]; KB-V1 cells, pre-treatment, then 2 μM doxorubicin 30 min) | increase of doxorubicin accumulation ([4]; MDR KB-V1 cells, 6 hours incubation at LD50, then 2 μM doxorubicin 30 min) | DNA ladder, state of DNA ([5]; 17.26 μM) | DNA ladder, state of DNA ([5]; 172.6 μM) | MDR1 mRNA level [6] | DNA ladder, state of DNA ([7]; 17.26 μM) | apoptosis (DNA fragmentation, DNA ladder) ([7]; 172.6 μM) | accumulation of doxorubicin in cells [8] | synergism with doxorubicin ([9]; APC 2.0219 μM to 129.3996 μM with doxorubicin) | Combination Index (CI) ([9]; drug combination C (doxorubicin 0.0431 μM, APC 129.3996 μM), all fractional kill) | β-Actin mRNA level [10] | synergism with doxorubicin [11] | level of actin [12]
1 | COc1cccc2c1C(=O)c1c(O)c3c(c(O)c1C2=O)C[C@@](O)(C(=O)CO)C[C@@H]3O[C@H]1C[C@H](N)[C@H](O)[C@H](C)O1 [doxorubicin, reference compound] | 3.0510 ± 0.2846 µM | – | – | – | – | – | – | – | – | – | – | – | – | – | – | –
2 | C/C=C(/C)C(=O)OC1C(OC(C)=O)c2c(ccc3ccc(=O)oc23)OC1(C)C (stereo not drawn) [APC, cis-3′-angeloyl-4′-acetoxy-khellactone] | 17.2656 ± 8.2441 µM | 41.9153 ± 2.8016 µM | lower | substantially higher accumulation of doxorubicin | approximately 25% | slightly cut | cut in larger extent | reduced significantly | little affected | significantly more apoptosis | more doxorubicin accumulated | relatively low synergism; also recorded: little or no synergistic interactions | greater than 1 | not affected | relatively high synergistic interactions | not affected
